Like-named read-outs stand apart in the source and are kept apart here.
Legend:
[1] = system: peripheral blood mononuclear leukocytes (PBML); experiment: PBML RNA synthesis (uridine); format: cell-based, human; conditions: for IC50: Homo sapiens, Leukocyte
Text: (§1) PBML were obtained from the peripheral blood of healthy volunteers. Blood was submitted to gradient centrifugation with Lympholyte-poly (Cedarlane, Hornby, Canada). The layer, which contains the mononuclear leukocytes, was collected and the cells washed three times in PBS. Cells were then suspended in RPMI (Gibco, Burlington, Canada) supplemented with […] (cyclone, Logan USA). Viability was greater than 99% as determined by trypan blue exclusion.
(§2) PBML were resuspended at 2×10^6 cells mL. 100 μL of PBML (2×10^5 cells) were incubated in a 96-well microtiter plate for 48 h in the presence or absence of compound or protein A. Cells were quiescent or stimulated with concanavalin A (ConA; T-cells) or pokeweed mitogen (PWM; B-cells). After incubation, cells were treated with MTT (cytotoxicity) or pulsed with 1 μCi of [^3]-thymidine (DNA synthesis), [^3H]-uridine (RNA synthesis) or [^3]-leucine (protein synthesis) for 6 h. Plates were harvested on a Tomteck and counted on a Microbeta β-counter.

[2] = system: peripheral blood mononuclear leukocytes (PBML); experiment: PBML protein synthesis (leucine); format: cell-based, human; conditions: Homo sapiens, Leukocyte
Text: as §1, §2

PBML cytotoxicity (MTT) = format: cell-based; conditions: human
Text: as §1, §2

[3] = system: peripheral blood mononuclear leukocytes (PBML); experiment: PBML DNA synthesis (thymidine); format: cell-based, human; conditions: for IC50: Homo sapiens, Leukocyte
Text: as §1, §2

[4] = molecular target: T1, TNFα / p55 TNFα receptor (CD120a) (Homo sapiens, UniProt P01375); experiment: Binding ELISA: TNF-α binding to plastic coated TNF-R1; conditions: for inhibition at 100 µM: 10^−4 M; for inhibition at 10 µM: 10^−5 M
Method: (§3) Compounds were tested for their ability to bind to TNFα or inhibit the interaction of TNFα with its respective receptors; p55 and p75 TNFα receptor. Three binding ELISA assays were undertaken as described by Mancini et al. Biochemical Pharmacology 58, 851-859 (1999). TNFα or receptor (1 μg/mL) was coated on a 96-well plate Maxisorp, overnight at 4° C. After incubation, unbound TNFα or p55 TNFα receptor or p75 TNFα receptor was removed and the plate washed three times with PBS. The plate was then incubated with 100 μL/well of a 2% BSA solution for 1 h at 37° C. to block non specific protein binding. After incubation, the plate was washed three times with PBS. Biotinylated recombinant human TNFα p55 or p75 receptor or biotinylated recombinant human TNFα was added to the wells in the presence or absence of compounds. The plate was incubated for 1 h at 37° C. After incubation, the plate was washed three times with PBS to remove unbound labeled p55 or p75 receptor or recombinant human TNFα. 100 μL of avidin-HRP (diluted 1/2000 in PBS-0.1% BSA) was added to each well and incubated 1 h at 37° C. Bound p55 or p75 receptor or recombinant human TNFα was detected by the addition of 200 μL of 3,3′,5,5′-tetramethylbenzidine (TMB) per well for 15 min. The plate was then read at 655 nm on a EL 800 universal Microplate reader (Bio-Tek, Mississauga, Canada). Data was analyzed in Microsoft Excel and recorded as the percentage of inhibition of p55 or p75 binding to TNFα or TNFα binding to RI (p55) or RII (p75).

[5] = molecular target: T2, Fc portion of human IgG (binding of protein A to human IgG); experiment: Competitive protein A binding ELISA
T2 construct: fused on or other part: Horseradish peroxidase chemically conjugated to the IgG (HRP-IgG)
Method: As described above, this assay evaluates the ability of the exemplified compounds to mimic protein A. Such compounds can bind to the Fc portion of human IgG as ascertained by the inhibition of binding of protein A to human IgG. The competitive protein A binding ELISA assay was performed on a 96-well plate Maxisorp surface to enhance the binding of protein A to the bottom of the plate. The wells were coated with 100 μL of protein A (0.8 μg) and incubated overnight at 4° C. After incubation, unbound protein A was removed by three washes with phosphate buffer saline (PBS). The plate was then incubated with 100 μL/well of a 2% solution of bovine serum albumin (BSA) for 1 h at 37° C. to block non specific protein binding. After incubation, the plate was washed to times with PBS. 50 μL of compound or protein A, diluted in PBS or PBS-20% DMSO at appropriate concentration, were added to the wells followed by addition of 50 μL of peroxidase-conjugated human IgG (HRP-IgG). After 1 h incubation at 37° C., the plate was washed free times with PBS to remove unbound HRP-IgG. Bound HRP-IgG was detected by incubation with 100 μL of 2,2′-Azino-di[3-ethylbenzothiazoline sulfonate]diammonium salt crystals (ABTS) solution for 20 min in the dark at room temperature. The plate was then read at 405 nm on a EL 800, universal Microplate reader (Bio-Tek). Data was analyzed in Microsoft Excel and the concentration of compound which inhibits 50% binding of protein A (IC50) was calculated using Prism software.
Table 1 represents the IC50 of compounds tested in the competitive protein A binding ELISA assay, which consists of a side-by-side analysis in PBS and PBS-20% DMSO. DMSO was used to increase the solubility of some of the compounds.

[6] = molecular target: T3, TNFα / p75 TNFα receptor (CD120b) (Homo sapiens, UniProt P01375); experiment: Binding ELISA: TNF-α binding to plastic coated TNF-R2; conditions: for inhibition at 100 µM: 10^−4 M; for inhibition at 10 µM: 10^−5 M
Method: as §3

[7] = molecular target: T3, TNFα / p75 TNFα receptor (CD120b); experiment: Binding ELISA: sTNF-R2 binding to plastic coated TNF-α; conditions: for inhibition at 100 µM: 10^−4 M; for inhibition at 10 µM: 10^−5 M
Method: as §3

[8] = system: TNFα-induced apoptosis, WEHI-13VAR cells; experiment: TNFα induced apoptosis in WEHI-13VAR cells (MTT); format: cell-based, murine; conditions: Mus musculus; for inhibition at 10 µM: 1 × 10^−5M; for inhibition at 20 µM: 2 × 10^−5M; for inhibition at 40 µM: 4 × 10^−5M; for inhibition at 5 µM: 5 × 10^−6M
Method: Effect of compounds on TNFα-induced apoptosis was measured by a standard biological assay using WEHI-13VAR cells. These cells undergo apoptosis when they are incubated in the presence of TNFα and actinomycin D. 2×10^4 WEHI-13VAR cells were incubated in RPMI supplemented with 1% sodium pyruvate and 10% FBS, overnight at 37° C. for cell adherence. The cells were then cultured in the presence of 1 μg/mL of actinomycin D (to inhibit protein synthesis) and 0.04 nM TNFα with or without compounds at 37° C. After 16-24 h, 50 μL of a solution of 2 mg/mL of MTT was added to each well and the plate was then incubated for 4 h at 37° C. Only viable cells metabolize MTT to form formazan salt, which is detectable by the measurement of absorbance at 570 nm. After the incubation, the plate was inverted to remove medium and dead cells. 150 μL DMSO was added to each well to stop the reaction and solubilize the formazan salt. Optical density was read on a EL 800, universal Microplate reader (Bio-Tek). A decrease in the optical density is direct evidence of cell apoptosis induced by TNFα. Compounds were also compared to the activity of an anti-TNFα neutralizing antibody.

[9] = system: TNFα production, J774A-1 cells; experiment: LPS-induced TNFα production in J774A-1 cells (ELISA); format: cell-based; conditions: Mus musculus, J774.A1, 24 h, read-out: IC50 (μM), inhibition of TNFα released by LPS induction
Method: Effect of compounds on TNFα production was measured by ELISA using J774-1 cells stimulated by LPS. J774-1 cells were cultured in the presence or absence of LPS and compound. Cells were cultured at 37° C. for 24 h and thereafter the supernatants were collected for the determination of the concentration of TNFα by ELISA as recommended by the manufacturer (BD Biosciences). Data was analyzed in Microsoft Excel and the concentration of compound which inhibits 50% of TNFα production (IC50) was calculated using Prism software.

[10] = molecular target: T1, TNFα / p55 TNFα receptor (CD120a); experiment: Binding ELISA: sTNF-R1 binding to plastic coated TNF-α; conditions: for inhibition at 100 µM: 10^−4 M; for inhibition at 10 µM: 10^−5 M
Method: as §3

[11] = resting and stimulated (ConA and PWM) PBML
[12] = Table 1, PBS-20% DMSO, read-out: IC50 (μM): Assay in PBS-20% DMSO
[13] = Table 1, PBS, read-out: IC50 (μM): Assay in PBS

T3 sequence (P01375 77-233 limits assumed): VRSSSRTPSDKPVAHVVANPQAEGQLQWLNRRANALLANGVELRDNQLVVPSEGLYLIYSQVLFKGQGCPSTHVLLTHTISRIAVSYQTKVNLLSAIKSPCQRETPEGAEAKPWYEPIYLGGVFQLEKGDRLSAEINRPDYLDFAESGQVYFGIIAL
T1 sequence (P01375 77-233 limits assumed): as above

Row | Compound | inhibition at 100 µM [4] [%] | inhibition at 10 µM [4] [%] | IC50 [5, 12] [µM] | IC50 [5, 13] [µM] | inhibition at 100 µM [6] [%] | inhibition at 10 µM [6] [%] | inhibition at 100 µM [7] [%] | inhibition at 10 µM [7] [%] | IC50 [9] [µM] | inhibition at 100 µM [10] [%] | inhibition at 10 µM [10] [%] | inhibition at 10 µM [8] [%] | inhibition at 20 µM [8] [%] | inhibition at 40 µM [8] [%] | inhibition at 5 µM [8] [%] | further results
1 | Nc1ccc(CCNc2nc(NCCNc3nc(NCCc4ccc(N)cc4)nc(Nc4cccc(N)c4)n3)nc(Nc3cccc(N)c3)n2)cc1 [Compound 7] | 32.6 | 10.4 | 0.02 | 0.2 | 36.9 | 43.3 | – | – | – | – | – | – | – | – | – | IC50 ([1]; ConA stimulated PBML): 1.5 µM; IC50 ([1]; PWM stimulated PBML): 1.78 µM; IC50 ([1]; Resting PBML): 1.12 µM; effect on RNA synthesis (in words) [1, 11]: suppress; IC50 ([2]; ConA stimulated PBML): > 10 µM; IC50 ([2]; PWM stimulated PBML): > 10 µM; IC50 ([2]; Resting PBML): > 10 µM; IC50 at 48 h (PBML cytotoxicity (MTT); ConA stimulated PBML): > 10 µM; IC50 at 48 h (PBML cytotoxicity (MTT); PWM stimulated PBML): > 10 µM; IC50 at 48 h (PBML cytotoxicity (MTT); Resting PBML): > 10 µM; IC50 ([3]; ConA stimulated PBML): 3.52 µM; IC50 ([3]; PWM stimulated PBML): 1.28 µM; IC50 ([3]; Resting PBML): 3.6 µM; effect on DNA synthesis (in words) [3, 11]: suppress; IC50 ([5]; Table 2, PBS-20% DMSO, n = 5 or 6, read-out: IC50 (n = 5 or 6) PBS-20% DMSO): 0.0217 µM; IC50 ([5]; Table 2, PBS, n = 5 or 6, read-out: IC50 (n = 5 or 6) PBS): 0.187 µM
2 | Oc1ccc(CCNc2nc(NCCCNc3nc(NCCc4ccc(O)cc4)nc(Nc4ccccc4)n3)nc(Nc3ccccc3)n2)cc1 [Compound 25] | 22.9 | 3.95 | – | – | 49.2 | 4.8 | 4.22 | 6.76 | 15.9 | 5.65 | 6.74 | 22.8 | -0.7 | -17.8 | 27.5 | –
3 | COC(=O)c1ccccc1Nc1nc(NCCNc2nc(N)nc(NCCc3ccc(O)cc3)n2)nc(NCCc2ccc(O)cc2)n1 [Compound 3] | – | – | – | – | – | – | – | – | 28 | – | – | 32.7 | 44.6 | 33.9 | 0.5 | –
4 | Cc1ccccc1Nc1nc(NCCNc2nc(NCCc3ccc(O)cc3)nc(Nc3ccccc3C)n2)nc(NCCc2ccc(O)cc2)n1 [Compound 5] | 15.4 | 4.6 | 36 | – | 38.5 | 21.2 | 2.68 | 4.31 | 44 | 1.54 | 2.95 | 35.1 | 38.7 | 35.4 | 28.9 | –
5 | NCCc1ccc(Nc2nc(NCCNc3nc(Nc4ccccc4)nc(Nc4ccc(CCN)cc4)n3)nc(Nc3ccccc3)n2)cc1 [Compound 4] | -69.4 | -47.4 | 40 | 44 | -105 | -86.7 | 5.26 | 2.06 | 94.4 | 2.19 | 4.5 | 11.2 | 25.3 | 44 | 2.4 | –
6 | Oc1ccc(CCNc2nc(NCCNc3nc(NCCc4ccc(O)cc4)nc(Sc4ccccc4)n3)nc(Sc3ccccc3)n2)cc1 [Compound 11b] | – | – | 45 | – | – | – | – | – | 23.3 | – | – | – | – | – | – | –
7 | Nc1ccc(CCNc2nc(Nc3ccccc3)nc(N3CCN(c4nc(NCCO)nc(Nc5ccccc5)n4)CC3)n2)cc1 [Compound 33] | – | – | 18 | 18 | – | – | – | – | 20.6 | – | – | – | – | – | – | –

Further lines, with some results ahead:

Row | inhibition at 100 µM [4] [%] | inhibition at 10 µM [4] [%] | IC50 [5, 12] [µM] | IC50 [5, 13] [µM] | inhibition at 100 µM [6] [%] | inhibition at 10 µM [6] [%] | inhibition at 100 µM [7] [%] | inhibition at 10 µM [7] [%] | IC50 [9] [µM] | inhibition at 100 µM [10] [%] | inhibition at 10 µM [10] [%] | Compound | inhibition at 10 µM [8] [%] | inhibition at 20 µM [8] [%] | inhibition at 40 µM [8] [%] | inhibition at 5 µM [8] [%] | further results
8 | – | – | 70 | 33 | – | – | – | – | 13.4 | – | – | NCCNc1nc(NCCc2ccc(Oc3nc(NCCc4ccc(O)cc4)nc(Nc4ccccc4)n3)cc2)nc(Nc2ccccc2)n1 [Compound 13] | – | – | – | – | –
9 | -8.4 | -35.7 | 39 | 23 | 3.8 | -30.4 | – | – | 3.4 | – | – | CN(C)CCCC(=O)Oc1ccc(CCNc2nc(NCCNc3nc(NCCc4ccc(OC(=O)CCCN(C)C)cc4)nc(Nc4ccccc4)n3)nc(Nc3ccccc3)n2)cc1 [Compound 12] | -21.1 | -28.4 | -30 | 36.9 | –
10 | – | – | 35 | – | – | – | – | – | 14.2 | – | – | CC(=O)NCCNc1nc(NCCc2ccc(Nc3nc(NCCc4ccc(O)cc4)nc(Nc4ccccc4)n3)cc2)nc(Nc2ccccc2)n1 [Compound 15] | – | – | – | – | –

Source: patent US7683061B2, “Triazine dimers for the treatment of autoimmune diseases” (ProMetic BioSciences Inc., priority 2003, dated 2010)
